Results as given in the supplement of paper PMC11208160.

Assay: recombinant UMI read abundance after kanamycin selection (control-corrected) (log10(CPM+1)); higher = more efficient recombination; extreme values may be limits of the assay; sequences stand for … in AGTGCAGAGAAAATCGGCCAGTTTTCTCTGCCTGCAGTCCGCATGCCGTGGGACCCCTTGGGTTCTAACCTGTTGCCTAGATTTATGCAGCGGACTGCCTTTCTCCCAAAGTGATAAACCGG…AGGTTGGTTTCACT; site = the 11-nt donor
Procedure, shortened: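 Reported values are log10(CPM+1) from a pooled Escherichia coli screen of donor and donor-binding-loop pairs for the IS621 bridge recombinase. Selection used IPTG (0.07 mM) plus kanamycin, against unselected plating, each in two replicates. Recombinant UMIs were amplified across the donor–target junction, sequenced, converted to CPM, averaged over replicates and scaled by control-derived factors.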
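Note: IS621 bridge recombinase in Escherichia coli cells against a fixed T5 target plasmid.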

Row | Sequence | recombinant UMI read abundance (log10)
1 | CGGAATCCATGGACCGGTTTTCCCGGTAATCCGTATTTGTT (site CGGAATTCTAA) | 0
2 | CGGAATCCATGGACCGGTTTTCCCGGTAATCCGTATTTGTT (site CGGAATTCTAG) | 0
3 | CGGAATCCATGGACCGGTTTTCCCGGTAATCCGTATTTGTT (site CGGAATTCTTA) | 0
4 | CGGAATCCATGGACCGGTTTTCCCGGTAATCCGTATTTGTT (site CGGACCCCTAA) | 0.00922
5 | CGGAATCCATGGACCGGTTTTCCCGGTAATCCGTATTTGTT (site CGGACTCCTAA) | 0.00741
6 | CGGAATCCATGGACCGGTTTTCCCGGTAATCCGTATTTGTT (site CGGACTCCTAC) | 0.00516
7 | CGGAATCCATGGACCGGTTTTCCCGGTAATCCGTATTTGTT (site CGGACTCCTCA) | 0.00467
8 | CGGAATCCATGGACCGGTTTTCCCGGTAATCCGTATTTGTT (site CGGACTGCTAA) | 0.0124
9 | CGGAATCCATGGACCGGTTTTCCCGGTAATCCGTATTTGTT (site CGGAGGCCTAA) | 0.012
10 | CGGAATCCATGGACCGGTTTTCCCGGTAATCCGTATTTGTT (site CGGAGTACTAA) | 0.00934
11 | CGGAATCCATGGACCGGTTTTCCCGGTAATCCGTATTTGTT (site CGGAGTCCTAA) | 0.00217
12 | CGGAATCCATGGACCGGTTTTCCCGGTAATCCGTATTTGTT (site CGGAGTCCTAT) | 0
13 | CGGAATCCATGGACCGGTTTTCCCGGTAATCCGTATTTGTT (site CGGAGTCCTGA) | 0
14 | CGGAATCCATGGACCGGTTTTCCCGGTAATCCGTATTTGTT (site CGGATACCTAA) | 0.0155
15 | CGGAATCCATGGACCGGTTTTCCCGGTAATCCGTATTTGTT (site CGGATTCCTAA) | 0.0126
16 | CGGAATCCATGGACCGGTTTTCCCGGTAATCCGTATTTGTT (site CGGATTCCTAG) | 0
17 | CGGAATCCATGGACCGGTTTTCCCGGTAATCCGTATTTGTT (site CGGATTCCTTA) | 0

Row | Sequence | recombinant UMI read abundance (log10)
18 | CGGAATCCATGGACCGGTTTTCCCGGTAATCCGTATTTGTT (site CGGATTTCTAA) | 0
19 | CGGAATCCATGGACCGGTTTTCCCGGTAATCCGTATTTGTT (site CGGCACCCTAA) | 0.0425
20 | CGGAATCCATGGACCGGTTTTCCCGGTAATCCGTATTTGTT (site CGGCATCCTAA) | 0.0145
21 | CGGAATCCATGGACCGGTTTTCCCGGTAATCCGTATTTGTT (site CGGCATCCTAC) | 0.011
22 | CGGAATCCATGGACCGGTTTTCCCGGTAATCCGTATTTGTT (site CGGCATCCTCA) | 0.00889
23 | CGGAATCCATGGACCGGTTTTCCCGGTAATCCGTATTTGTT (site CGGCATGCTAA) | 0.0214
24 | CGGAATCCATGGACCGGTTTTCCCGGTAATCCGTATTTGTT (site CGGCCTCCTAA) | 0
25 | CGGAATCCATGGACCGGTTTTCCCGGTAATCCGTATTTGTT (site CGGGAACCTAA) | 0.00313
26 | CGGAATCCATGGACCGGTTTTCCCGGTAATCCGTATTTGTT (site CGGGATCCTAA) | 0.0888
27 | CGGAATCCATGGACCGGTTTTCCCGGTAATCCGTATTTGTT (site CGGGATCCTAG) | 0
28 | CGGAATCCATGGACCGGTTTTCCCGGTAATCCGTATTTGTT (site CGGGATCCTTA) | 0.00923
29 | CGGAATCCATGGACCGGTTTTCCCGGTAATCCGTATTTGTT (site CGGGATTCTAA) | 0
30 | CGGAATCCATGGACCGGTTTTCCCGGTAATCCGTATTTGTT (site CGGGTTCCTAA) | 0.0107
31 | CGGAATCCATGGACCGGTTTTCCCGGTAATCCGTATTTGTT (site CGGTAGCCTAA) | 0.0806
32 | CGGAATCCATGGACCGGTTTTCCCGGTAATCCGTATTTGTT (site CGGTATACTAA) | 0.0163
33 | CGGAATCCATGGACCGGTTTTCCCGGTAATCCGTATTTGTT (site CGGTATCCTAA) | 0.107
34 | CGGAATCCATGGACCGGTTTTCCCGGTAATCCGTATTTGTT (site CGGTATCCTAT) | 0
